Experimental data reported in article PMC9231011, “Irreversible Antagonists for the Adenosine A2B Receptor” (Molecules, 2022).
Substitutions are numbered along the chain they refer to.

Key:
hA1 = biological target: hA1; design: method as in PMID 30835463, PMID 31646479; details: Figure 1; cited from earlier work
hA2A = biological target: hA2A; design: method as in PMID 30835463, PMID 31646479; details: Figure 1; cited from earlier work
hA2B = biological target: hA2B; design: method as in PMID 30835463, PMID 31646479; details: Figure 1; cited from earlier work
hA3 = biological target: hA3; design: method as in PMID 30835463, PMID 31646479; details: Figure 1; cited from earlier work
[1] = biological target: T1, mutant human A2BAR (K269^7.32L) (Homo sapiens, UniProt P29275, K269L); experiment: Homologous competition binding of PSB-603 vs [3H]PSB-603 at mutant; details: K269^7.32L mutant
T1 construct: expressed in transfected cells; host or cells: FreeStyle CHO-S cells, pcDNA3.1(+), transient
T1 sequence (P29275 1-332 K269L): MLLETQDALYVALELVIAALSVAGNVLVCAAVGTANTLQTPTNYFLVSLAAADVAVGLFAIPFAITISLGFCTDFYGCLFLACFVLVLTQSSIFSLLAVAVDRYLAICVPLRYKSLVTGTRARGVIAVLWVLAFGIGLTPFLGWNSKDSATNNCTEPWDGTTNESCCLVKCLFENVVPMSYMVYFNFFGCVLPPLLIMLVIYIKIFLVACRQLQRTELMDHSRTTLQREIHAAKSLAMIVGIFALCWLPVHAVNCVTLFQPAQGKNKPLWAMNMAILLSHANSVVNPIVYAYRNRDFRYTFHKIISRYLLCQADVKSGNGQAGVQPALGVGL
Experimental: The human A2AAR, the mutant human A2BAR (K269^7.32L), and the human A3AR were transiently expressed in FreeStyle^TM CHO-S cells using the transfection reagent polyethylenimine (PEI) at a ratio of 1:3 to DNA according to the manufacturer’s guideline. pcDNA3.1(+) was used as the transfection vector containing the cDNA for either the wt ARs or the K269^7.32L mutant A2BAR that was prepared by site-directed mutagenesis with the following primer: forward […], reverse […]. CHO-S cells were grown in FreeStyle^TM CHO Expression Medium supplemented with 8 mM L-glutamine before use and split to 0.5 mio. cells per mL the day before transfection. Twenty-four hours after transfection, cells were spun down by centrifugation for 15 min at 500× g. […]
Binding experiments were performed using 50 mM Tris buffer (pH 7.4) in a total volume of 400 µL for the A1AR, A2AAR, A3AR, and 1000 µL for the A2BAR. […] Non-specific binding was determined in the presence of 10 µM of 2-chloroadenosine, 10 µM of CGS 15943, 10 µM of 8-cyclopently-1,3-dipropylxanthine or 100 µM of (R)-N^6-phenylisopropyadenosine for A1-, A2A-, A2B- and A3ARs, respectively. […] Subsequently, radioactivity was determined using a liquid scintillation counter (Tricarb 2810TR, Perkin Elmer).

A2BAR = biological target: T2, A2BAR (Homo sapiens, UniProt P29275); design: purchased Perkin Elmer ES-013-M400UA; method as in PMID 19569717; details: wt A2BAR; read-out: KD of [3H]PSB-603; cited from earlier work
T2 sequence (P29275 1-332): T1 sequence (P29275 1-332 K269L) with L269K

| Compound | Ki (hA1) | Ki (hA2A) | Ki (hA2B) | Ki (hA3) | KD of [3H]PSB-603 [1] | Kd [1] | Kd (A2BAR) |
| --- | --- | --- | --- | --- | --- | --- | --- |
| CCCn1c(=O)[nH]c2nc(-c3ccc(S(=O)(=O)N4CCN(c5ccc(Br)cc5)CC4)cc3)[nH]c2c1=O [PSB-1901] | > 1000 nM | > 1000 nM | 0.0835 nM | > 1000 nM |  |  |  |
| CCCn1c(=O)[nH]c2nc(-c3ccc(S(=O)(=O)N4CCN(c5ccc(Cl)cc5)CC4)cc3)[nH]c2c1=O [PSB-603] | > 10000 nM | > 10000 nM | 0.553 nM | > 10000 nM | did not alter | 0.292 ± 0.034 nM | 0.553 ± 0.103 nM |
| CCn1c(=O)c2c(nc(/C=C/c3ccc(OC)c(OC)c3)n2C)n(CC)c1=O [Istradefylline, istradefylline] | 841 nM | 26.4 nM | > 10000 nM | 4470 nM |  |  |  |
